Test results from US12122816B2, “Long acting peptide tyrosine tyrosine (PYY) analogs and methods of use” (Intarcia Therapeutics, Inc., priority 2020, dated 2024).

Key:
human Y5 receptor = target: T1, human Y5 receptor (Homo sapiens, UniProt Q15761); assay: NPY receptor functional assay (cAMP, HEK-CNG cells, ACTOne membrane potential dye); assay type: cell-based; details: NPY5R pEC50, HEK-CNG cells; standard NPY; species (human or rat) not given
T1 sequence (Q15761 1-445): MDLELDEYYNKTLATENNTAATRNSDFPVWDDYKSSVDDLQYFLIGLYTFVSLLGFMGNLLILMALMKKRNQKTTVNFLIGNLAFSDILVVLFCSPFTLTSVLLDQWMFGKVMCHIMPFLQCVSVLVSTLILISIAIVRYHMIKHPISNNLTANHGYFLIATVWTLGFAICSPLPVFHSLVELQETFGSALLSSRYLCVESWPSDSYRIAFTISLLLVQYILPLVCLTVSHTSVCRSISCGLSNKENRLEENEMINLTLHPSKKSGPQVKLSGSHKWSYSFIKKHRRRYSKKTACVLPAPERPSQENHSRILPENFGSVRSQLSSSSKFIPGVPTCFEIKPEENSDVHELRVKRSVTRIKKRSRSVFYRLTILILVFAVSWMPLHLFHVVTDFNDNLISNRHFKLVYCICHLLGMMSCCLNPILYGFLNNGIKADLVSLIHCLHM
In short: (§1)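 HEK-CNG cells stably expressing each human receptor; peptides added in triplicate for 50 minutes at room temperature, with agonism read as decreased isoproterenol-induced membrane potential dye signal (final/initial read).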

human Y2 receptor = target: T2, human Y2 receptor (Homo sapiens, UniProt P49146); assay: as above; assay type: cell-based; details: NPY2R pEC50, HEK-CNG cells; standard PYY(3-36); species (human or rat) not given
T2 sequence (P49146 1-381): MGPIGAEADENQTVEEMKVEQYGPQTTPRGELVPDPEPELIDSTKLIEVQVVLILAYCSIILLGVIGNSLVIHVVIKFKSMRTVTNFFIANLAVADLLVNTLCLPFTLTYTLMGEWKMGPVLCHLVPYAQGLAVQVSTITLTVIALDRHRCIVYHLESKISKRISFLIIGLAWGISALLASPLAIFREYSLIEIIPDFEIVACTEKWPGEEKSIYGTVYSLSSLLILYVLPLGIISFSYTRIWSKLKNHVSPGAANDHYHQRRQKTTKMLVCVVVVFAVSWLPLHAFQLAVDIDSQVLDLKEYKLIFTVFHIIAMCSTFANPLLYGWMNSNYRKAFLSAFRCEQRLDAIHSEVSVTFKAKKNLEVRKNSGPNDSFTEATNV
In short: as §1

human Y1 receptor = target: T3, human Y1 receptor (Homo sapiens, UniProt P25929); assay: as above; assay type: cell-based
T3 sequence (P25929 1-384): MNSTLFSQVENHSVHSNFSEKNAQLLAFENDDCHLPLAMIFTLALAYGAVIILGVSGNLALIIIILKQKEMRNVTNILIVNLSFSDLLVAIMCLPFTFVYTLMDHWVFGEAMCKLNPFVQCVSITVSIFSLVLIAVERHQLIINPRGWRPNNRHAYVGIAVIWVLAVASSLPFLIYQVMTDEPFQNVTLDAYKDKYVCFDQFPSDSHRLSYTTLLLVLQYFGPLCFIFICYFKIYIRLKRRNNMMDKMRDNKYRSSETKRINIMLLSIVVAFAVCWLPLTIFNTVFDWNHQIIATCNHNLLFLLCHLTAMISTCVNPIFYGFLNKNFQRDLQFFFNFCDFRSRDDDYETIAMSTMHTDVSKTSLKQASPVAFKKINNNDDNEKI
Text: The NPY family of G-protein coupled receptors include Y1, Y2, Y4, and Y5 in humans and rats. […] Following agonist binding, the receptor-G protein complex activates a downstream intracellular signaling cascade which leads to inhibition of adenylate cyclase and a reduction in intracellular cAMP levels.
HEK-CNG cells stably expressing the human or rat Y1, Y2, Y4 or Y5 receptors (Codex Biosolutions) were used to characterize the functional potency of peptide agonists using the ActOne™ membrane potential dye kit (Codex Biosolutions). In addition to each NPY receptor, each cell line encodes a proprietary exogenous Cyclic Nucleotide-Gated (CNG) channel (Codex Biosolutions). The channel is activated by elevated intracellular levels of cAMP, resulting in ion flux and cell membrane depolarization which can be detected with a calcium sensitive dye or fluorescent membrane potential (MP) dye. Cells were carried in growth media containing 90% DMEM, 10% FBS, 250 mcg/mL G418 and 1 mcg/mL puromycin for no more than 15 passages.
Prior to testing, cells were counted and dispensed at 14,000 cells per well (Y1, Y4 and Y5) or 28,000 cells per well (Y2) into black 384 well Poly-D-Lysine plates at 20 mcL per well. Covered plates were then incubated at room temperature for 30 minutes followed by an overnight incubation at 37° C. in 5% C02. The following day, media was removed and wells were washed once with 40 mcL Dulbecco's phosphate buffered saline. […] Ten microliters of experimental peptide or peptide standard was added in triplicate to wells and incubated for 50 minutes at room temperature in the dark. Following this incubation step, plates were read again as before (final read).
NPY receptor activation, leading to a reduction in intracellular cAMP levels, is detected as a decrease in isoproteranol induced fluorescent signal. Peptide standard and experimental values were initially transformed in excel using the formula: final read/initial read. […] Normalized data was analyzed from triplicate tests and used to estimate the EC50 for each test peptide on each receptor. Data was fit in GraphPad Prism software (v8.2.1) using a 3-parameter logistic curve model: Y=Bottom+(Top−Bottom)/(1+10^((LogEC50−X))). EC50 values were converted to pEC50 values using the formula: pEC50=−Log(EC50).

[1] = Stability in water or saline (1 mg/ml) at 37° C., purity by LC/MS and HPLC; assay type: physicochemical; details: TFA salt form

CC(C)C[C@H](NC(=O)[C@H](Cc1ccc(O)cc1)NC(=O)[C@H](Cc1c[nH]cn1)NC(=O)[C@H](CCCNC(=N)N)NC(=O)[C@H](CC(C)C)NC(=O)[C@H](CC(=O)O)NC(=O)[C@@H](CCCCNC(=O)CC[C@H](NC(=O)CC[C@H](NC(=O)CCCCCCCCCCCCCCCCCCC(=O)O)C(=O)O)C(=O)O)NC(=O)[C@H](Cc1ccc(O)cc1)NC(=O)[C@H](Cc1ccc(O)cc1)NC(=O)[C@H](CCCNC(=N)N)NC(=O)[C@H](CC(N)=O)NC(=O)[C@H](Cc1c[nH]c2ccccc12)NC(=O)[C@H](CCC(=O)O)NC(=O)[C@H](CCC(=O)O)NC(=O)[C@@H]1CCCN1C(=O)[C@H](CO)NC(=O)[C@H](C)NC(=O)[C@H](CC(=O)O)NC(=O)[C@H](CCCCN)NC(=O)CNC(=O)[C@@H]1CCCN1C(=O)[C@H](C)NC(=O)[C@H](CCC(=O)O)NC(=O)[C@@H]1CCCN1C(=O)[C@H](CCCCN)NC(=O)[C@@H]1CCCN1)C(=O)N[C@@H](CC(N)=O)C(=O)N[C@@H](Cc1c[nH]c2ccccc12)C(=O)N[C@@H](CC(C)C)C(=O)N[C@H](C(=O)N[C@@H](CCCNC(=N)N)C(=O)N[C@@H](CCC(N)=O)C(=O)N[C@@H](CCCNC(=N)N)C(=O)N[C@@H](Cc1ccccc1)C(N)=O)[C@@H](C)O [Compound A14]
EC50 (human Y5 receptor): 5.01 nM | EC50 (human Y2 receptor): 0.0794 nM | EC50 (human Y1 receptor): 3.16 nM | Stability (37° C./RT, T0: Mar. 25, 2020) [1]: 94.2
